“And” between values parts separate entries of the source, which are not always exact repeats. Identical values can stand only once.
Legend:
[1] = target: T1, mouse D1R (Mus musculus, UniProt Q61616); assay: potentiator-mode cAMP assay in mouse CAD neuroblastoma cell line; format: cell-based; settings: mouse CAD neuroblastoma cells
T1 construct: human SK-N-MC and mouse CAD neuroblastoma cell lines; endogenous in cells; host or cells: mouse CAD neuroblastoma cell line
Experimental: In order to ascertain if this allosteric potentiation was due to a modulation on DA affinity, radioligand binding assays in the presence of DA IC50 (4 μM) were carried out.
Compound 26 was tested in the potentiator-mode cAMP assay at different fixed concentrations (1, 5, and 10 μM). […] Therefore, it should have negligible direct activating effects on the human D1R in the absence of the endogenous ligand.
Figure 3 (A) Concentration–response curves in human D1R for cAMP production of DA alone (black) and in the presence of different concentrations of compound 26. (B) Concentration–response curves in human D1R of DA (black), 10 μM 26 for 10 min (red), and 10 μM 26 for 10 min then washing with assay buffer (blue). (C) Concentration–response curves in mouse D1R of DA alone (black) and in the presence of 10 μM 26 (red). (D) Concentration–response curve in human D1R of compound 26 in the presence of DA EC70 concentration. (E) Concentration–response curves in human D1R of DA (black) and compound 26 (red). (F) Concentration–response curves in human D1R of DA (red), after preincubation for 1 h with 10 μM DA (black), with 10 μM 26 (green), and with both 10 μM DA and 10 μM 26 (blue).

[2] = target: T2, human D3R (Homo sapiens, UniProt P35462); assay: PatHunter beta-arrestin assay at human D3R; format: cell-based; settings: 10 μM compound
T2 construct: host or cells: cells supplied with the PatHunter Beta-arrestin eXpress GPCR assay kit
T2 sequence (P35462 whole entry): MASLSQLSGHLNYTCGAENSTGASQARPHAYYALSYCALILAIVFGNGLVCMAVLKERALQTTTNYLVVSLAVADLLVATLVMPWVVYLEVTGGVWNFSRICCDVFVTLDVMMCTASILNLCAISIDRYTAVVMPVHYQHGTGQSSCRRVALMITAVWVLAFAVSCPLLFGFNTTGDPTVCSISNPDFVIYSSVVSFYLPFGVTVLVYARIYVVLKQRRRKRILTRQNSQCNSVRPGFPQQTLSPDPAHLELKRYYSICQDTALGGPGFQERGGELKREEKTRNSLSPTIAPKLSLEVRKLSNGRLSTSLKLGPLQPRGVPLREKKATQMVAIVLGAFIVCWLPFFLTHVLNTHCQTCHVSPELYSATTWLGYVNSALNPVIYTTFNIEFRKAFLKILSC
Experimental: Functional studies at both human D3 and D4 receptors were carried out in human D3 and D4 receptors, using a PatHunter Beta-arrestin eXpress GPCR assay kit from DiscoverX. Briefly, cells were plated and maintained for 48 h at 37 °C in a 5% CO2 atmosphere in cell plating reagent provided in the kit. After this time, test compounds were added to the cells and incubated for 30 min at 37 °C. Dopamine was added to the cells and incubated for an additional 90 min at 37 °C. Cells were then treated with the working detection solution provided with the kit for 1 h and beta-arrestin translocation was measured by luminescence detection (integration time = 500 ms) in a Tecan M1000 Genius Pro reader. Data were normalized to dopamine maximum effect and fitted to a 4-parameter logistic equation using Prism v2.1 software (GraphPad Inc).

[3] = target: T3, human D5R (Homo sapiens, UniProt P21918); assay: cAMP Hunter eXpress DRD5 assay at human D5R; format: cell-based; settings: 10 μM compound
T3 construct: host or cells: cells supplied with the cAMP Hunter eXpress DRD5 assay kit
T3 sequence (P21918 whole entry): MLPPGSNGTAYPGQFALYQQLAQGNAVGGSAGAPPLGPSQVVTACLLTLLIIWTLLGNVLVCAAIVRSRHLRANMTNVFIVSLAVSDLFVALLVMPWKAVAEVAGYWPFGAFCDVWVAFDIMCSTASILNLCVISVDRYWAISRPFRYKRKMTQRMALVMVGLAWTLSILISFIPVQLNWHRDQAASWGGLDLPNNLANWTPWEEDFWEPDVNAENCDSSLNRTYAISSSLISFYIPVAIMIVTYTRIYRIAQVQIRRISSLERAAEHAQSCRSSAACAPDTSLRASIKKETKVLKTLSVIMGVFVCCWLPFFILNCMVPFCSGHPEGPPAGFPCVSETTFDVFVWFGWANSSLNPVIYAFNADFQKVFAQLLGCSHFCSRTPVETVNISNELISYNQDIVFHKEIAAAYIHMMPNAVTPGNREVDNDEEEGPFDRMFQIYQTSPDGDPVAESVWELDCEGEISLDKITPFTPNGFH
Experimental: Functional studies at human D5R receptors were carried out in human D5R, using a cAMP Hunter eXpress DRD5 assay kit from DiscoverX. Briefly, cells were plated and maintained for 24 h at 37 °C in a 5% CO2 atmosphere in the cell plating reagent provided in the kit. After this time, test compounds were added to the cells and incubated for 15 min at 37 °C, followed by treatment with dopamine and incubation for an additional 30 min at 37 °C. Cells were then treated with the cAMP working detection solution provided with the kit for 1 h, and then cAMP solution A was added and incubated for 3 h at rt. cAMP formation was measured by luminescence detection (integration time = 500 ms) in a Tecan M1000 Genius Pro reader. Data were normalized to dopamine maximum effect and fitted to a 4-parameter logistic equation using Prism v2.1 software (GraphPad Inc).

[4] = target: T4, CYP2D6 (Homo sapiens, UniProt P10635); assay: cytochrome inhibition, fluorescence assay, CYP2D6; format: in vitro ADME
T4 construct: host or cells: insect cell microsomes
T4 sequence (P10635 whole entry): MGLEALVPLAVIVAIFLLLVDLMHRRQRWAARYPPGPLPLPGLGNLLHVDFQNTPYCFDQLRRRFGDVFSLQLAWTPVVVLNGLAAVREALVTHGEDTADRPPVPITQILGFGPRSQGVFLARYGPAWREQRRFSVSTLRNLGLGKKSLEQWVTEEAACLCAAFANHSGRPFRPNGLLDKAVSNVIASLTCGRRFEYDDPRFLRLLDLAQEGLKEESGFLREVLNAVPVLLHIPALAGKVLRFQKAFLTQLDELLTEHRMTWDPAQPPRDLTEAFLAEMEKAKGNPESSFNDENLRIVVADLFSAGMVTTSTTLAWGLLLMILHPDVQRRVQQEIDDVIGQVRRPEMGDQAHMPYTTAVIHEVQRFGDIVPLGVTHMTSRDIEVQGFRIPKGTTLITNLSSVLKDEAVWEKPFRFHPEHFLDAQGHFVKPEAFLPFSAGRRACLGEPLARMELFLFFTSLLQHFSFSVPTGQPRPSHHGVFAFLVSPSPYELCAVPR
Experimental: (§1) Cytochrome inhibition. The objective of this study was to screen the potential of test […]
(§2) performed using recombinant isoforms CYP1A2, CYP2C9, CYP2C19, CYP2D6, and CYP3A4, and probe substrates with fluorescent detection.
(§3) Assays were conducted in a 200 µL volume in 96-well microtiter plates (COSTAR 3915).
(§4) Addition of cofactor-buffer mixture (KH2PO4 buffer, 1.3 mM NADP, 3.3 mM MgCl2, 3.3 mM glucose -6- phosphate, and 0.4 U/mL glucose -6- phosphate dehydrogenase), supersomes control, standard inhibitors (furafyline, tranylzypromine, ketoconazole, sulfaphenazole, and quinidine from Sigma Aldrich) and test compound to the plate was carried out by a liquid handling station (Zephyr Caliper). The plate was then pre-incubated at 37 °C for 5 min, and the reaction was initiated by the addition of the pr e - warmed enzyme/substrate (E/S) mix. […]
(§5) Fluorescence per well was measured using a fluorescence plate reader (Tecan Infinite M1000 pro) and percentage of inhibition was calculated. hERG ion channel inhibition. […]

[5] = target: T5, CYP1A2 (Homo sapiens, UniProt P05177); assay: cytochrome inhibition, fluorescence assay, CYP1A2; format: in vitro ADME
T5 construct: host or cells: insect cell microsomes
T5 sequence (P05177 1-516): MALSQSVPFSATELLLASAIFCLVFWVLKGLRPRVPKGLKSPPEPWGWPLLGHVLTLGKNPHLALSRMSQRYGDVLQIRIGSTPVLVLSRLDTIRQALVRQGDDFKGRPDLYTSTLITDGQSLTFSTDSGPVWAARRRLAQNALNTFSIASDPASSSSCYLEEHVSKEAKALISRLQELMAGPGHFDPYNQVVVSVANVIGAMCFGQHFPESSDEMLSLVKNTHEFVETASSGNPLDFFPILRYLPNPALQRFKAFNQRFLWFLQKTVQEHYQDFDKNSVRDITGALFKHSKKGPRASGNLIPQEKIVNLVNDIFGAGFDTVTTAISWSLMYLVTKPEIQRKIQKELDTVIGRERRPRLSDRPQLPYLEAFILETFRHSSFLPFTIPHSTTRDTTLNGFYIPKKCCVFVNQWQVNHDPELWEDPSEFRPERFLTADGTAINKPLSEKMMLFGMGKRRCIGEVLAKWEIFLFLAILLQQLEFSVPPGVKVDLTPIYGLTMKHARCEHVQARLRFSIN
Experimental: as §1, §2, §3, §4, §5

[6] = target: T6, CYP2C9 (Homo sapiens, UniProt P11712); assay: cytochrome inhibition, fluorescence assay, CYP2C9; format: in vitro ADME
T6 construct: host or cells: insect cell microsomes
T6 sequence (P11712 whole entry): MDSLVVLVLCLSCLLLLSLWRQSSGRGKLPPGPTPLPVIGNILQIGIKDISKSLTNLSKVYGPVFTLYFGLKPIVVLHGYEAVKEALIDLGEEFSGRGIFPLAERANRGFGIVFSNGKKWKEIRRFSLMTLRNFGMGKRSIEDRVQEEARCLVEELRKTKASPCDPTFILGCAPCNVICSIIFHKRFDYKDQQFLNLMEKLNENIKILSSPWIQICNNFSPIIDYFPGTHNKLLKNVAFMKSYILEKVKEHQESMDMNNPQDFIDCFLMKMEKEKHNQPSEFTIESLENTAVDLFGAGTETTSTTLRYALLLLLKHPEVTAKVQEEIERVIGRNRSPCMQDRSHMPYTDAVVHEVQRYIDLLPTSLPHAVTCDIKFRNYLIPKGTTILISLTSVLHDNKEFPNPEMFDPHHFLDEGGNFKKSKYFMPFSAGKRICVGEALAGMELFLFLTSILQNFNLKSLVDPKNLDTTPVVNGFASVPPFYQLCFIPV
Experimental: as §1, §2, §3, §4, §5

[7] = Table S1, concentration not given
[8] = percentage of inhibition at 10 μM

T1 sequence (Q61616 whole entry): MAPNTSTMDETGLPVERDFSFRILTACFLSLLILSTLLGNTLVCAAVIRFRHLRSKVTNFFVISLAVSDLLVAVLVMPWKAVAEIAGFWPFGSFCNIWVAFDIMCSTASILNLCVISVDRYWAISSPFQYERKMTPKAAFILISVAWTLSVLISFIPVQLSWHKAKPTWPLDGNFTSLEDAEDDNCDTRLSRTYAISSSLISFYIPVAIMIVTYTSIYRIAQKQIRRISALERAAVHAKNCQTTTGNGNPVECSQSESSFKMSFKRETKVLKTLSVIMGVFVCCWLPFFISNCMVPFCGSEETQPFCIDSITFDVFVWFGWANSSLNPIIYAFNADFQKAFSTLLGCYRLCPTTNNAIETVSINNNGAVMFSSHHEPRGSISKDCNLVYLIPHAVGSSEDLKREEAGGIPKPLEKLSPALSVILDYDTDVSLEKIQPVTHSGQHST

CYP2D6 (%) [4, 8] | CYP1A2 (%) [5, 8] [%] | CYP2C9 (%) [6, 8] [%] | Structure (SMILES) | potentiation of DA effect in mouse D1R [1] | enhancement of DA Emax at human D3 receptor [2] | enhancement of DA Emax at human D5 receptor [3] | CYP2D6 (%) [4, 7] | IC50 [5] [nM] | CYP2C9 (%) [6, 7]
 |  |  | O=Cc1ccc(-c2ccccc2OCF)cc1 [Compound 3, 2′-(Fluoromethoxy)[1,1′-biphenyl]-4-carbaldehyde] | concentration-dependent potentiation of DA effect | did not enhance DA Emax | did not enhance DA Emax | inactive | 830 ± 170 | inactive
3% and 3 ± 1% | 49 ± 2 | 38 ± 3 | CS(=N)(=O)c1ccc(-c2ccccc2OCF)cc1 (stereo not drawn) [Compound 26, 2-(Fluoromethoxy)-4′-(S-methanesulfonimidoyl)-1,1′-biphenyl] | PAM behavior was also observed | subtype selectivity | subtype selectivity |  |  | 
